Data: US20090215742A1, “AMIDE […]” (PFIZER, INC., priority 2005, published 2009)

Target: T1, HSP-90 (Homo sapiens, UniProt P07900)
T1 construct: fused on or other part: 6-His tag at the C-terminus
Assay: HSP-90 SPA (scintillation proximity assay) competition binding assay, displacement of tritiated propyl-Geldanamycin
Settings: for inhibition at 1 µM: read-out: % inhibition @ 1 μM; for inhibition at 10 µM: read-out: % inhibition @ 10 μM
Protocol: Compounds of the present invention were evaluated for potency against HSP-90 using a SPA (scintillation proximity assay) competition binding assay. Briefly, either full length or N-terminal HSP-90 that contains a 6-His tag on its C-terminus binds to copper on Yttrium-silicate scintillant beads via the His-tag. Tritiated propyl-Geldanamycin (pGA), whose structure is shown below, is an analog of a natural inhibitor of HSP-90 called Geldanamycin.
Tritiated pGA, which contains a tritiated propyl-amine group added at the #17 position, binds HSP-90 and brings the isotope into proximity with the beads. […] The beta signal emitted from the isotope excites the scintillant, which creates a measurable signal. As competitive compounds are added to the assay mixture, they compete with bound tritiated pGA at the ATP-binding site on the N-terminal of HSP-90. When a compound displaces the labeled pGA, the signal is reduced (the beta-particles are no longer in proximity with the bead). This reduction in signal is used to quantify the extent to which the inhibitor/compound is competitive with pGA.
Typical reaction solutions contained 30 nM HSP-90 and 200 nM ^3H-pGA in binding buffer (100 mM Hepes, pH 7.5 and 150 mM KCl). […] Inhibitors were added to the HSP-90/^3H-pGA solutions at eleven different concentrations for Ki determinations. […] To determine percent inhibition, the compound was tested at 1 and 10 μM. The final DMSO in the samples was 4%. Copper-Ysi beads (Amersham, #RPNQ0096) that have been diluted in binding buffer were added to each well to give a final concentration of 100 μg/well. The plates were sealed, covered with a foil-covered lid and shaken for 30 minutes at room temperature. The beads were allowed to settle for 30 minutes after which the plates were counted using a Packard TopCount NXT instrument. This procedure has also been adapted for medium throughput using a Beckman Biomek FX. Samples were run in duplicate and on two separate days to assure an accurate value of Ki.
For Ki determinations, the corrected cpm's (actual cpm's minus background) were plotted vs. inhibitor concentration using GraphPad Prism software. […] The IC50 was then used to calculate the Ki by using the Cheng-Prusoff equation: […]
This is normally true when the observed IC50 is […] the HSP-90 concentration. For a tight binding inhibitor, the following equation can be applied: […]
EL and ELo are the radioligand-HSP-90 complexes in the presence and absence of inhibitor, respectively. EL/ELo represents the fractional signal in the presence of inhibitor. Io, Eo, and Lo are the inhibitor, HSP-90, and radioligand concentrations, respectively.

| SMILES | inhibition at 1 µM [%] | inhibition at 10 µM [%] |
| --- | --- | --- |
| O=C(c1ccc(O)cc1O)N1CCOCC(Cc2ccc(Cl)c(Cl)c2)C1 (stereo not drawn) [Example 99, 4-{[6-(3,4-dichlorobenzyl)-1,4-oxazepan-4-yl]carbonyl}benzene-1,3-diol] | 52.2 | 80 |
| O=C(c1ccc(O)cc1O)N1CCC(COc2cccc(Cl)c2)C1 (stereo not drawn) [Example 87, 4-({3-[(3-chlorophenoxy)methyl]pyrrolidin-1-yl}carbonyl)benzene-1,3-diol] | 36.7 | 65 |
| CN(C(=O)c1ccc(O)cc1O)[C@H]1CCCC[C@@H]1O [Example 45, 2,4-dihydroxy-N-(2-hydroxycyclohexyl)-N-methylbenzamide] | 9.6 | 38.3 |
| O=C(c1ccc(O)cc1O)N1CCOCC(O)(COCC2CC2)C1 (stereo not drawn) [Example 38] | 27.4 | 68.4 |
| O=C(c1ccc(O)cc1O)N1CCC(COc2ccc(F)cc2Cl)C1 (stereo not drawn) [Example 89, 4-({3-[(2-chloro-4-fluorophenoxy)methyl]pyrrolidin-1-yl}carbonyl)benzene-1,3-diol] | 45.7 | 77.8 |
| CN(Cc1ccc(Cl)cc1)C(=O)c1ccc(O)cc1O [Example 106, N-(4-chlorobenzyl)-2,4-dihydroxy-N-methylbenzamide] | 26.9 | 72.4 |
| Cc1ccc(C(=O)N2Cc3ccccc3C2)c(O)c1 [Example 27, 2-(1,3-dihydro-2H-isoindol-2-ylcarbonyl)-5-methylphenol] | 0.2 | 26.2 |
| O=C(c1ccc(O)cc1O)N1CCC(Oc2ccccc2)CC1 [Example 71, 4-[(4-phenoxypiperidin-1-yl)carbonyl]benzene-1,3-diol] | 37.3 | 79.3 |
| CN(CCc1ccccc1)C(=O)c1ccc(O)cc1O [Example 108, 2,4-dihydroxy-N-methyl-N-(2-phenylethyl)benzamide] | 40.5 | 83.1 |
| O=C(c1ccc(O)cc1O)N1CCC(CCc2ncccn2)CC1 [Example 46, 4-{[4-(2-pyrimidin-2-ylethyl)piperidin-1-yl]carbonyl}benzene-1,3-diol] | 44.9 | 77.1 |
| O=C(c1ccc(O)cc1O)N1CCC2(C=Cc3cc(Cl)ccc3O2)CC1 [Example 79, 4-[(6-chloro-1′H-spiro[chromene-2,4′-piperidin]-1′-yl)carbonyl]benzene-1,3-diol] | 57.7 | 85.1 |
| O=C(c1ccc(O)cc1O)N1CCCCC1c1nccs1 (stereo not drawn) [Example 62, 4-{[2-(1,3-thiazol-2-yl)piperidin-1-yl]carbonyl}benzene 1,3-diol] | 12 | 64.4 |
| O=C(c1ccc(O)cc1O)N1CCCCC1CCC1CCCC1 (stereo not drawn) [Example 44, 4-{[2-(2-cyclopentylethyl)piperidin-1-yl]carbonyl}benzene-1,3-diol] | 82.4 | 90.5 |
| O=C(c1ccc(O)cc1O)N1CCCN(c2nc3cc(Cl)ccc3o2)CC1 [Example 88, 4-{[4-(5-chloro-1,3-benzoxazol-2-yl)-1,4-diazepan-1-yl]carbonyl}benzene-1,3-diol] | 4.3 | 42.9 |
| O=C(c1cc(Cl)cc(Cl)c1O)N1Cc2ccccc2C1 [Example 208, 2,4-dichloro-6-(1,3-dihydro-2H-isoindol-2-ylcarbonyl)phenol] | – | 0 |
| O=C(c1ccc(O)cc1O)N1CCOCC(COCC2CC2)C1 (stereo not drawn) [Example 37] | 24.6 | 64.1 |
| CN(Cc1ccc(F)cc1)C(=O)c1ccc(O)cc1O [Example 105, N-(4-fluorobenzyl)-2,4-dihydroxy-N-methylbenzamide] | 30.2 | 69.3 |

| SMILES | inhibition at 1 µM [%] | inhibition at 10 µM [%] |
| --- | --- | --- |
| CCOc1cc2c(cc1OCC)CN(C(=O)c1ccc(O)cc1O)CC2 [Example 56, 4-[(6,7-diethoxy-3,4-dihydroisoquinolin-2(1H)-yl)carbonyl]benzene-1,3-diol] | 27 | 73 |
| COc1ccccc1-c1nnc(CN(C)C(=O)c2ccc(O)cc2O)o1 [Example 118, 2,4-Dihydroxy-N-{[5-(2-methoxyphenyl)-1,3,4-oxadiazol-2-yl]methyl}-N-methylbenzamide] | 15.4 | 57 |
| Cc1ccc2c(c1)C=CC1(CCN(C(=O)c3ccc(O)cc3O)CC1)O2 [Example 82, 4-[(6-methyl-1′H-spiro[chromene-2,4′-piperidin]-1′-yl)carbonyl]benzene-1,3-diol] | 62.8 | 85.3 |
| O=C(c1cccc2cccnc12)N1Cc2ccccc2C1 [Example 187, 8-(1,3-dihydro-2H-isoindol-2-ylcarbonyl) quinoline] | 0 | – |
| CN(Cc1ccccc1Cl)C(=O)c1ccc(O)cc1O [Example 113, N-(2-chlorobenzyl)-2,4-dihydroxy-N-methylbenzamide] | 53 | 81.9 |
| COc1ccc(F)c(C2=NOC3(COCCN(C(=O)c4ccc(O)cc4O)C3)C2)c1 (stereo not drawn) [Example 132, 4-{[3-(2-fluoro-5-methoxyphenyl)-1,7-dioxa-2,10-diazaspiro[4.6]undec-2-en-10-yl]carbonyl}benzene-1,3-diol] | 33.3 | 73.9 |
| C[C@H]([C@@H](O)c1ccccc1)N(C)C(=O)c1ccc(O)cc1O [Example 53, 2,4-dihydroxy-N-(2-hydroxy-1-methyl-2-phenylethyl)-N-methylbenzamide] | -7.8 | 7.3 |
| COc1ccc2oc(N3CCN(C(=O)c4ccc(O)cc4O)CC3)nc2c1 [Example 127, 4-{[4-(5-methoxy-1,3-benzoxazol-2-yl)piperazin-1-yl]carbonyl}benzene-1,3-diol] | 21.1 | 60.3 |
| Cc1cc(C)c2c(c1)CCC1(CCN(C(=O)c3ccc(O)cc3O)CC1)O2 [Example 75, 4-[(6,8-dimethyl-3,4-dihydro-1′H-spiro[chromene-2,4′-piperidin]-1′-yl)carbonyl]benzene 1,3-diol] | 51.6 | 82 |
| O=C(c1ccc(O)cc1O)N1CCOCC2(CC(c3ccc(F)cc3)=NO2)C1 (stereo not drawn) [Example 120, 4-{[3-(4-fluorophenyl)-1,7-dioxa-2,10-diazaspiro[4.6]undec-2-en-10-yl]carbonyl}benzene-1,3-diol] | 76.2 | 89.4 |
| O=C(c1ccc(O)cc1O)N1CCC(CCc2ccccc2)C1 (stereo not drawn) [Example 65, 4-{[3-(2-phenylethyl)pyrrolidin-1-yl]carbonyl}benzene-1,3-diol] | 69.7 | 87 |
| O=C(c1ccc(O)cc1O)N1CCC(c2ccnc(C(F)(F)F)n2)CC1 [Example 83, 4-({4-[2-(trifluoromethyl)pyrimidin-4-yl]piperidin-1-yl}carbonyl)benzene-1,3-diol] | 10.1 | 35 |
| Nc1nccc(-c2ccc(O)c(C(=O)N3Cc4ccccc4C3)c2)n1 [Example 31, 4-(2-aminopyrimidin-4-yl)-2-(1,3-dihydro-2H-isoindol-2-ylcarbonyl)phenol] | 8.1 | 12.9 |
| O=C(c1ccc(O)cc1O)N1CCOC(COc2cc(F)cc(F)c2)C1 (stereo not drawn) [Example 114, 4-({2-[(3,5-difluorophenoxy)methyl]morpholin-4-yl}carbonyl)benzene-1,3-diol] | 60.2 | 83.2 |
| O=C(c1ccc(O)cc1O)N1CCN(c2cnccn2)CC(CO)C1 (stereo not drawn) [Example 124, 4-{[6-(hydroxymethyl)-4-pyrazin-2-yl-1,4-diazepan-1-yl]carbonyl}benzene-1,3-diol] | -4.8 | 18.1 |
| COc1ccc(Cc2nnc3n2CCN(C(=O)c2ccc(O)cc2O)CC3)cc1 [Example 116, 4-{[3-(4-methoxybenzyl)-5,6,8,9-tetrahydro-7H-[1,2,4]triazolo[4,3-d][1,4]diazepin-7-yl]carbonyl}benzene-1,3-diol] | 5 | 62.1 |
| O=C(c1ccc(O)cc1O)N1CCN(c2nc(-c3ccccc3C(F)(F)F)cc(=O)[nH]2)CC1 [Example 126, 2-[4-(2,4-dihydroxybenzoyl)piperazin-1-yl]-6-[2-(trifluoromethyl)phenyl]pyrimidin-4(3H)-one] | 35.9 | 71 |
